The subject of data set [1] is RSV fusion (HEK293T cells transfected with pCDNA3.1_A2_F). Nature of the data set: RSV fusion assay. It counts as cell-based. As to conditions: human respiratory syncytial virus, HEK-293T, read-out: RSV Fusion Assay (n ≥ 2) IC50. On the procedure:
HEK293T ((ECACC 12022001) cells were cultured in T75 culture flasks in Dulbecco's medium (DMEM) containing 10% Foetal Bovine serum (FBS), 50 units per mL Penicillin and 50 μg/mL Streptomycin and warmed to 37° C. prior to use. The cells were passaged by first washing briefly with 5 mL Phosphate buffered saline (PBS), followed by addition of 2 mL of Trypsin Ethylenediaminetetraacetic acid (EDTA) to detach the cells. Once cells had detached from the flask, 8 mL media was then added to and the cells dispersed via pipetting against the bottom of the flask.
The cells were counted and diluted to 3×10^5 cells/mL in fresh media. Two T75 flasks were each seeded with 15.6 mL diluted cells, cells were also subcultured at a ratio of between 1:2 and 1:10, to continue the stock. The flasks were then incubated for 24 h at 37° C. and 5% CO2.
The plasmid DNA (for pFR-Luc and pcDNA3.1_Gal4/NFKB) to be transfected into the HEK 293T cells was first prepared in serum free media (Opti-MEM, Invitrogen), containing the transfection reagent FuGENE® 6 (Promega). Serum free media was placed in a 1.5 mL eppendorf tube then the FuGENE 6 was added into the media. The tube was vortexed for 1 s before being incubated at RT for 5 min. 7.79 ng of both pFR_luc and pCDNA3.1_A2_F plasmid DNA were added to tube 1 and 7.79 ng of pCDNA3.1_GAL4-NF-κB plasmid to tube 2. The tubes were vortexed for 1 second and then incubated at room temperature for 15 min. Each transfection mixture was then added into the media of one of the T75 flasks of 293T cells. Cells were cultured for 24 h at 37° C., 5% CO2 in a humidified incubator.
Compounds were diluted (in a polypropylene round-bottomed 96 well plate) 1:3 in a twelve point dilution curve to give top [final] of either 25 μM, 3 μM, 1 μM or 500 nM. A control compound was included in every assay at a top concentration of 3 μM. Transfected cells were counted and diluted to 4×10^5 cells/mL in fresh media. 50 μL of transfection population 1 were added to all wells of the 96 well flat bottom white opaque assay plates. 100 μL diluted compound (2 rows per compound), control compound (one row) and controls (DMSO (0% inhibition, four wells), 3 μM positive control (100% inhibition, four wells) and media (transfection population 1 only, four wells) were added to the appropriate wells. 50 μL of the diluted (4×10^5 cells/mL) population 2 cells when then added to all wells, except the four wells of transfection population 1 only where an extra 50 μL of this cells population was added.
The plates were then incubated for 24 h at 37° C. and 5% CO2. After this time, 100 μL was removed from all wells and 60 μL of ONE-Glo™ (Promega) reagent, pre-equilibrated to room temperature, was added. Plates were then incubated for 3 min at room temperature before luminescence was read, using the ONE-Glo protocol, on the GloMax Explorer System (Promega) multimode reader. Analysis was carried out in Dotmatics software. All raw data were background subtracted (subtraction of mean 3 μM positive control value), before IC50 calculation.

Data set [2] is described as follows: Liver microsomal stability, rat. It counts as in vitro ADME. As to conditions: pooled liver microsomes, pH 7.4, 3 μM compound, 0.5 mg/mL protein, read-out: Liver Microsomal Stability t1/2. How it is done:
(§1) Microsomal incubation: Experimental Procedure Pooled liver microsomes are purchased from a reputable commercial supplier and stored at −80° C. prior to use. Microsomes (final protein concentration 0.5 mg/mL), 0.1 M phosphate buffer pH 7.4 and test compound (final substrate concentration 3 μM, final DMSO concentration 0.25%) are pre-incubated at 37° C. prior to the addition of NADPH (final concentration 1 mM) to initiate the reaction. The final incubation volume is […]. A control incubation is included for each compound tested where 0.1 M phosphate buffer pH 7.4 is added instead of NADPH (minus NADPH). Two control compounds are included with each species. All incubations are performed singularly for each test compound. Each compound is incubated for 0, 5, 15, 30 and 45 min. The control (minus NADPH) is incubated for 45 min only. The reactions are stopped by transferring 20 μL of incubate to 60 μL MeOH at the appropriate time points. The termination plates are centrifuged at 2,500 rpm for 20 min at 4° C. to precipitate the protein. Following protein precipitation, the sample supernatants are combined in cassettes of up to 4 compounds, internal standard is added and samples analysed by LC-MS/MS. From a plot of In peak area ratio (compound peak area/internal standard peak area) against time, the gradient of the line is determined. Subsequently, half-life and intrinsic clearance are calculated.

Data set [3] in a line: Liver microsomal stability, human. It counts as in vitro ADME. To be noted: pooled liver microsomes, pH 7.4, 3 μM compound, 0.5 mg/mL protein, read-out: Liver Microsomal Stability t1/2. How it is done: as §1
For orientation: Liver microsomes are vesicles of endoplasmic reticulum, rich in cytochrome P450 enzymes.

The next data set deals with MDR1. Nature of the data set: in vitro. It counts as in vitro ADME. As to conditions: dog, MDCK-MDR1. On the procedure: MDR1-MDCK Permeability: Experimental Procedure
MDR1-MDCK cells obtained from the NIH (Rockville, Md., USA) are used between passage numbers 6-30. Cells are seeded onto Millipore Multiscreen Transwell plates at 3.4×10^5 cells/cm^2. The cells are cultured in DMEM and media is changed on day 3. On day 4 the permeability study is performed. Cell culture and assay incubations are carried out at 37° C. in an atmosphere of 5% CO2 with a relative humidity of 95%. On the day of the assay, the monolayers are prepared by rinsing both basolateral and apical surfaces twice with Hanks Balanced Salt Solution (HBSS) at the desired pH warmed to 37° C. Cells are then incubated with HBSS at the desired pH in both apical and basolateral compartments for 40 min to stabilise physiological parameters.
The dosing solutions are prepared by diluting test compound with assay buffer to give a final test compound concentration of 10 μM (final DMSO concentration of 1% v/v). The fluorescent integrity marker lucifer yellow is also included in the dosing solution. Analytical standards are prepared from test compound DMSO dilutions and transferred to buffer, maintaining a 1% v DMSO concentration.
For assessment of A-B permeability, HBSS is removed from the apical compartment and replaced with test compound dosing solution. The apical compartment insert is then placed into a companion plate containing fresh buffer (containing 1% v/v DMSO). For assessment of B-A permeability, FIBSS is removed from the companion plate and replaced with test compound dosing solution. Fresh buffer (containing 1% v/v DMSO) is added to the apical compartment insert, which is then placed into the companion plate. At 60 min the apical compartment inserts and the companion plates are separated and apical and basolateral samples diluted for analysis. Test compound permeability is assessed in duplicate. Compounds of known permeability characteristics are run as controls on each assay plate.
Test and control compounds are quantified by LC-MS/MS cassette analysis using an 8-point calibration with appropriate dilution of the samples. The starting concentration (C0) is determined from the dosing solution and the experimental recovery calculated from C0 and both apical and basolateral compartment concentrations. The integrity of the monolayer throughout the experiment is checked by monitoring lucifer yellow permeation using fluorimetric analysis. Lucifer yellow permeation is high if monolayers have been damaged.

Data set [4] in a line: Liver microsomal stability, dog. Type of data set: in vitro ADME. As to conditions: pooled liver microsomes, pH 7.4, 3 μM compound, 0.5 mg/mL protein, read-out: Liver Microsomal Stability t1/2. How it is done:
as §1

On to `CC(C)CCn1c(CN2C(=O)C(F)(F)c3ccccc32)nc2cc(CN)ccc21` [Compound 13, 1-{[5-(Aminomethyl)-1-(3-methylbutyl)-1H-1,3-benzodiazol-2-yl]methyl}-3,3-difluoro-2,3-dihydro-1H-indol-2-one], for which the IC50 (usually the concentration needed to halve the response being measured) in data set [1] came to 2.6 nM. In addition, the half-life at 3 μM in data set [2] was 0.282 h; in data set [3] it was 6.1 h; in data set [4], 154 h. The Papp A→B (commonly the apparent permeability from the apical to the basolateral side of a cell layer) at 60 min, 10 μM in the data set on MDR1 stood at 0.84 ×10⁻⁶ cm/s. In addition, the basolateral-to-apical permeability (Papp B→A) (commonly the apparent permeability from the basolateral to the apical side of a cell layer) at 60 min, 10 μM in the data set with MDR1 came to 57.1 ×10⁻⁶ cm/s.

With `CCS(=O)(=O)N1CCC(n2c(CN3C(=O)C(F)(F)c4ccccc43)nc3cc(Cl)ccc32)CC1` [Compound 9, 1-({5-Chloro-1-[1-(ethanesulfonyl)piperidin-4-yl]-1H-1,3-benzodiazol-2-yl}methyl)-3,3-difluoro-2,3-dihydro-1H-indol-2-one], in data set [1], the IC50 stood at 2.2 nM. Besides, the half-life at 3 μM stood at 0.377 h in data set [2], 1.5 h in data set [3] and 1.97 h in data set [4]. This compound also yielded a Papp A→B at 60 min, 10 μM in the data set on MDR1 of 10.4 ×10⁻⁶ cm/s. The compound further yielded a Papp B→A at 60 min, 10 μM with MDR1 of 18.3 ×10⁻⁶ cm/s.

On to `CS(=O)(=O)CCCn1c(CN2C(=O)C(F)(F)c3ccccc32)nc2cc(Cl)ccc21` [Compound 5, 1-{[5-Chloro-1-(3-methanesulfonylpropyl)-1H-1,3-benzodiazol-2-yl]methyl}-3,3-difluoro-2,3-dihydro-1H-indol-2-one], for which, in data set [1], the 50% inhibitory concentration (IC50) came to 3.9 nM. Also, the half-life at 3 μM in data set [2] worked out at 0.355 h; in data set [3], 54.7 h; in data set [4] it was 1.05 h. The Papp A→B at 60 min, 10 μM in the data set on MDR1 stood at 0.21 ×10⁻⁶ cm/s. Also, the Papp B→A at 60 min, 10 μM in the data set on MDR1 worked out at 14.5 ×10⁻⁶ cm/s.

Turning to `O=C1N(Cc2nc3cc(Cl)ccc3n2C2CCOCC2)c2ccccc2C1(F)F` [Compound 10, 1-{[5-Chloro-1-(oxan-4-yl)-1H-1,3-benzodiazol-2-yl]methyl}-3,3-difluoro-2,3-dihydro-1H-indol-2-one], the IC50 in data set [1] was determined as 17 nM. Besides, the half-life at 3 μM in data set [2] came out at 0.303 h; in data set [3] it was 1.12 h; in data set [4], 0.207 h. The Papp A→B at 60 min, 10 μM in the data set on MDR1 came to 19.8 ×10⁻⁶ cm/s. The compound also returned a basolateral-to-apical permeability (Papp B→A) at 60 min, 10 μM in the data set on MDR1 of 34.4 ×10⁻⁶ cm/s.

(Values after US11141406B2, “Pharmaceutical compounds” (REVIRAL LIMITED, priority 2017, dated 2021).)
